Test results: patent publication US5459270A, “Azacyclic compounds, processes for their preparation and pharmaceutical compositions containing them” (Merck Sharp & Dohme Limited, priority 1991, dated 1995)
Where a name gives a salt, the structure may show the parent alone. Read-outs that look alike come from different tables or passages of the source.

Molecular target: human neurokinin-1-receptor (NK1R) (Homo sapiens, UniProt P25103)
Assay: biochemical
Type: binding
Settings: for IC50: displacement of 125I-substance P, read-out: IC50 @ NKIR; for inhibition at 1 µM: read-out: % @ 1 μM (in column IC50 @ NKIR)
Experimental: To express the cloned human neurokinin-1-receptor (NK1R) transiently in COS, the cDNA for the human NK1R was cloned into the expression vector pCDM9 which was derived from pCDM8 (INVITROGEN) by inserting the ampicillin resistance gene (nucleotide 1973 to 2964 from BLUESCRIPT SK+ (trademark, […], La Jolla, Calif., USA)) into the Sac II site. Transfection of 20 ug of the plasmid DNA into 10 million COS cells was achieved by electroporation in 800 μl of transfection buffer (135 mM NaCl, 1.2 mM CaCl2, 1.2 mM MgCl2, 2.4 mM K2 HPO4, 0.6 mM KH2 PO4, 10 mM glucose, 10 mM N-2-hydroxyethyl-piperazine-N'-2-ethane sulphonic acid (HEPES) pH 7.4) at 260 V and 950 μF using the IBI GENEZAPPER (trademark IBI, New Haven, Conn., USA). The cells were incubated in 10% fetal calf serum, 2 mM glutamine, 100 U/ml penicillin-streptomycin, and 90% DMEM media (GIBCO, Grand Island, N.Y., USA) in 5% CO2 at 37° C. for three days before the binding assay.
To establish a stable cell line expressing cloned human NK1R, the cDNA was subcloned into the vector pRcCMV (INVITROGEN). Transfection of 20 μg of the plasmid DNA into CHO cells was achieved by electroporation in 800 μl of transfection buffer supplemented with 0.625 mg/ml Herring sperm DNA at 300 V and 950 μF using the IBI GENEZAPPER (IBI). The transfected cells were incubated in CHO media [10% fetal calf serum, 100 U/ml penicillin-streptomycin, 2 mM glutamine, 1/500 hypoxanthine-thymidine (ATCC), 90% IMDM media (JRH BIOSCIENCES, Lenexa, Kans., USA), 0.7 mg/ml G418 (GIBCO)] in 5% CO2 at 37° C. until colonies were visible. Each colony was separated and propagated. The cell clone with the highest number of human NK1R was selected for subsequent applications such as drug screening.
The binding assay of human NK1R expressed in either COS or CHO cells is based on the use of ^125 I-substance P (^125 I-SP, from DU PONT, Boston, Mass.) as a radioactively labeled ligand which competes with unlabeled substance P or any other ligand for binding to the human NK1R. […] The tubes were incubated at 4° C. or at room temperature for 1 hour with gentle shaking. The bound radioactivity was separated from unbound radioactivity by GF/C filter (BRANDEL, Gaithersburg, Md.) which was pre-wetted with 0.1% polyethylenimine. The filter was washed with 3 ml of wash buffer (50 mM Tris pH 7.5, 5 mM MnCl2, 50 mM NaCl) three times and its radioactivity was determined by gamma counter.

Chain of human neurokinin-1-receptor (NK1R) (P25103 whole entry): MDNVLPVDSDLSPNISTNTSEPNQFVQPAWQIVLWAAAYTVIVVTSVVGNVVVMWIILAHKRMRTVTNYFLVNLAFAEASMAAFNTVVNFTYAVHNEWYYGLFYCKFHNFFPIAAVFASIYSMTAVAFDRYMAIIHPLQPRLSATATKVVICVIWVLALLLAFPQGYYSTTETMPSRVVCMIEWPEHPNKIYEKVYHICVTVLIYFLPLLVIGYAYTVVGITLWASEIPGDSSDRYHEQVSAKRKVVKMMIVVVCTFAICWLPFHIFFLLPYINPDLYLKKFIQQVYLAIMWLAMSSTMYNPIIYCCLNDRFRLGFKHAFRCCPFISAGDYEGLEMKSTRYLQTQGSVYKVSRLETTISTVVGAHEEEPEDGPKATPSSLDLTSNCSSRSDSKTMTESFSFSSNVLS

Row | Structure (SMILES) | IC50 (human NK1R in COS or CHO cells) [nM] | also measured
1 | COC(=O)CCN1CCC[C@H](OCc2cc(C(F)(F)F)cc(C(F)(F)F)c2)[C@@H]1c1ccccc1 (relative stereo) [Example 29, cis-3-((3,5-Bis(trifluoromethyl)phenyl)methyloxy)-1-(2-carbomethoxy)ethyl-2-phenylpiperidine] | 40 | 
2 | Cc1cc(C)cc(CO[C@@H]2CCCN[C@H]2c2ccccc2)c1 (relative stereo) [Example 12, trans-((3.5-Dimethylphenyl)methyloxy)-2-phenyl piperidine hydrochloride salt] |  | inhibition at 1 µM (1 h, 1 μM, human NK1R in COS or CHO cells, 125I-substance P): 46%
3 | CC(C)(C)NC(=O)CN1CCC[C@H](OCc2cc(C(F)(F)F)cc(C(F)(F)F)c2)[C@@H]1c1ccccc1 [Example 56, (2S,3S)-3-((3,5-Bis(trifluoromethyl)phenyl)methyloxy-1-((N-t-butyl)carboxamidomethyl)-2-phenylpiperidinium hydrochloride] | 25 | 
4 | FC(F)(F)c1cc(CO[C@H]2CCCN[C@H]2c2cccc(Cl)c2)cc(C(F)(F)F)c1 (relative stereo) [Example 22, cis-3-((3,5-Bis(trifluoromethyl)phenyl)methyloxy)-2-(3-chlorophenyl)piperidine hydrochloride salt] | 5 | 
5 | c1ccc(CO[C@H]2CCCN[C@H]2c2ccccc2)cc1 (relative stereo) [Example 34, cis-2-Phenyl-3-(phenylmethyloxy)piperidine oxalate salt] |  | inhibition at 1 µM (1 h): 53%
6 | O=CN1CCC[C@H](OCc2cc(C(F)(F)F)cc(C(F)(F)F)c2)[C@@H]1c1ccccc1 [Example 16, (2S,3S)-1-Formyl-3-((3,5-bis(trifluoromethyl)phenyl)methyloxy)-2-phenyl piperidine] | 80 | 
7 | FC(F)(F)c1cc(CO[C@H]2CCCN[C@H]2c2ccccc2)cc(C(F)(F)F)c1 [Example 5, (+)-cis-3((3,5-Bis(trifluoromethyl)phenyl)methyloxy)-2-phenylpiperidine hydrochloride salt] | 1 | 
8 | FC(F)(F)c1cc(CO[C@H]2CCCN[C@H]2c2ccccc2)cc(C(F)(F)F)c1 [Example 11, (-)-cis-3-((3,5-Bis(trifluoromethyl)phenyl)methyloxy)-2-phenyl piperidine hydrochloride salt] | 350 | 
9 | FC(F)(F)c1cc(CO[C@H]2CCCN(Cc3cc(C(F)(F)F)cc(C(F)(F)F)c3)[C@H]2c2ccccc2)cc(C(F)(F)F)c1 (relative stereo) [Example 42] |  | inhibition at 0.3 µM (1 h, read-out: % @ 300 nM (in column IC50 @ NKIR), 300 nM, human NK1R in COS or CHO cells, 125I-substance P): 45%
10 | CN1CCC[C@H](OCc2cc(C(F)(F)F)cc(C(F)(F)F)c2)[C@@H]1c1ccccc1 [Example 10, (+)-cis-3-((3,5-Bis(trifluoromethyl)phenyl)methyloxy)-1-methyl-2-phenylpiperidine] | 20 | 
11 | Clc1cc(Cl)cc(CO[C@H]2CCCN[C@H]2c2ccccc2)c1 (relative stereo) [Example 47, cis-3-((3,5-Dichlorophenyl)methyloxy)-2-phenylpiperidine hydrochloride salt] | 2 | 
